Test results from patent US11466024B2, “Bicylic compound acting as an inhibitor” (CHIA TAI TIANQING PHARMACEUTICAL GROUP CO., LTD., priority 2017, dated 2022).

Experiments:
[1] = tested on: MOG35-55-induced experimental autoimmune encephalomyelitis (EAE); experiment: In vivo pharmacodynamic research on MOG35-55-induced experimental autoimmune encephalomyelitis (EAE) in mice; conditions: G4, 75 mg/kg p.o. b.i.d
Experimental: The day of immunization was recorded as day 0, and the subsequent days were marked sequentially. Mice were anesthetized with isoflurane, and 100 μl of the emulsion was administered via subcutaneous injection at three sites (the middle part between shoulder and back, and two sides of the tail that were close to the groin), namely, 33 μl of the emulsion for each site. 0 hour and 48 hours after the injection of the emulsion, 200 ng (i.e. 200 μl) of the PTX solution was intraperitoneal injected. Mice in the normal group were not required to be immunized.
After the immunization on day 0, the immunized mice were randomly divided into 3 groups with 10 mice in each group according to the body weights except for the mice in the normal group, the details were shown in Table 1. FTY720 served as a positive drug, and a dose of […] was an effective dose commonly used in the EAE model.
The first group was normal mice without any treatment; vehicle was administered to the second group; FTY720 was administered to the third group at a dose of 0.5 mg/kg once a day; and the compound of Example 1 was administered to the fourth group at a dose of 75 mg/kg twice a day. The administration lasted for 25 days in total. The volume of intragastric administration was 10 ml/kg.
The day when animals were immunized was day 0. Animal body weights were recorded three times a week from day 0 to day 10, and the body weights and clinical scores of the animals were closely observed and recorded daily from day 11.
The experimental data was expressed as mean±standard error of mean (Mean±SEM).
The area under the curve of clinical scores over time (i.e. “AUC of clinical scores” or “area under the curve of clinical scores”) was calculated by analyzing the curve of clinical scores for each animal in each group, and the inhibition rates of the remaining groups (G1, G3, and G4) relative to G2 (solvent control group) were calculated by the mean AUC of clinical scores among groups.

[2] = target: hERG potassium channel (Homo sapiens, UniProt Q12809); experiment: Inhibition test of hERG potassium channel (QPatch, CHO-hERG cells)
Chain of hERG potassium channel (Q12809 whole entry): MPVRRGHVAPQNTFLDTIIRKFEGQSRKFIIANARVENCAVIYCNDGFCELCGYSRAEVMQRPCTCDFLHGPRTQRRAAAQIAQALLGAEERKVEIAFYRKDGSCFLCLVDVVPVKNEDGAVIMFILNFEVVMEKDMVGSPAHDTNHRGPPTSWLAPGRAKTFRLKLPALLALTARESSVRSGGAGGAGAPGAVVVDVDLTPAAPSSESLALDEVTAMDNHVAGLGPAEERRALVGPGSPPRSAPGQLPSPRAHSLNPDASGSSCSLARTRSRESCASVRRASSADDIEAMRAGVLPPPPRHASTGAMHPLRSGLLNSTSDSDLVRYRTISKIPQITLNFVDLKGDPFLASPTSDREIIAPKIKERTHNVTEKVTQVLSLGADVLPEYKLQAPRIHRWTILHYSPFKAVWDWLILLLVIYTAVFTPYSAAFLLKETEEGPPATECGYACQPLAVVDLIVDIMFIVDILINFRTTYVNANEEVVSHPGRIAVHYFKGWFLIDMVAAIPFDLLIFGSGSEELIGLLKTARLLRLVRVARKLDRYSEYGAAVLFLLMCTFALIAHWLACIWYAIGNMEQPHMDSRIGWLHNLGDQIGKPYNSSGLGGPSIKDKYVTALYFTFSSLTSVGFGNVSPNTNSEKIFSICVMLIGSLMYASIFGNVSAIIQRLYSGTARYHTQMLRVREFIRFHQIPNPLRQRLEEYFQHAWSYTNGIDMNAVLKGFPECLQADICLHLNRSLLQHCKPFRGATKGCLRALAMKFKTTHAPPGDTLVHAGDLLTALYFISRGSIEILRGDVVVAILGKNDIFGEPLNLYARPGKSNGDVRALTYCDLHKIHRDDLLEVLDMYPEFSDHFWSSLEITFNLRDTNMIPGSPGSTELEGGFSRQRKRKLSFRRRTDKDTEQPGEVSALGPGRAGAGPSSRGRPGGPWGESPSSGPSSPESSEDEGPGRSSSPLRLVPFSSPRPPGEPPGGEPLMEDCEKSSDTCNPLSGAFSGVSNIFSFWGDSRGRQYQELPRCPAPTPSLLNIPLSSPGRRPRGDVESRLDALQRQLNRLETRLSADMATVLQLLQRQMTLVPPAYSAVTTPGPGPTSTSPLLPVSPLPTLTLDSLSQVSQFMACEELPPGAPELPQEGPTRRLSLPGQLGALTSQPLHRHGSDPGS
Experimental: CHO-hERG cells (from Shanghai Institute of Materia Medica, Chinese Academy of Sciences) were cultured in a 175 cm^2 culture flask. When the cell density reached 60% to 80%, the culture medium was removed, the cells were washed once with 7 mL of PBS, and then 3 mL of Detachin was added for cell detachment. After complete cell detachment, 7 mL of culture medium were added for neutralization, the mixture was then centrifuged, the supernatant was aspirated, and another 5 mL of culture medium was added for re-suspension, so as to ensure that the cell density was 2×10^6/mL to 5×10^6/mL.
The single-cell giga-seal and the formation of whole-cell mode were both completed automatically by a Q patch instrument. After a whole-cell recording mode was achieved, the cells were clamped at −80 mV, exposed to a front voltage of −50 mV for 50 ms prior to a depolarizing stimulus (5 s, +40 mV), and then repolarized to −50 mV for 5 s, followed by a recovery to −80 mV. This voltage stimulation was applied every 15 s and recorded for 2 minutes, and the extracellular fluid was then administered, followed by a record lasting for 5 minutes. Thereafter, the administration process was started. Starting from the lowest test concentration, the compounds were administered at each test concentration and the process lasted for 2.5 minutes. […] At least 3 cells (n≥3) were tested at each concentration.
20 mM stock solution of the compound was diluted with the extracellular fluid, and 5 μL of the 20 mM stock solution of the compound was taken, added to 2495 μL of the extracellular fluid, and diluted by 500 times to 40 μM. Thereafter, the resulting mixture was serially and successively diluted by 3 times in an extracellular fluid containing 0.2% DMSO, so as to obtain a final concentration to be tested.
The experimental data was analyzed by XLFit software.

## CCS(=O)(=O)c1ccc(CNC(=O)c2cc3c(s2)C(C(C)C)N(C[C@H]2CC[C@H](C(F)(F)F)CC2)C3)nc1 (single isomer, unassigned) [Example 1]
[1]; 25 days, FIG. 1
  clinical scores of EAE mice: significantly reduced
[1]; 25 days, p<0.0001, FIG. 2
  inhibition rate of AUC of clinical scores relative to solvent control group: 93.2%
[1]; at day 19, stable till the end of the experiment, FIG. 3
  morbidity of EAE: 20%
[1]; from the beginning to end, FIG. 4
  body weights compared among groups: the highest
[1]; significantly different from solvent control group, FIG. 4
  body weight changes: kept increasing
[2]
  IC50: > 40 µM
[2]; human
  inhibition at 2.5 min, 40 μM: 26.3%
